Structures can show the parent of a compound that is named as a salt.
Experiments:
[1] = target: T1, AC1 (Homo sapiens, UniProt Q08828); assay: cAMP accumulation assay, AC1-HEK Δ3/6 KO cells; type: cell-based; details: for IC50: CDI analog SAR set, 3 μM A23187, read-out: IC50 (μM) ± SEM AC1
T1 construct: expressed in transfected cells
Method: Cells were then incubated for 1 h at 37°C and 5% CO2. Cells were then treated with varying concentrations of inhibitors for 30 min, followed by treatment with calcium ionophore A23187 (3 μM) in 500 μM 3-isobutyl-1-methylxanthine (IBMX), a phosphodiesterase inhibitor, for 1 h at RT (Sigma Aldrich, St. Louis, MO). Finally, Cisbio HTRF detection reagents were added and incubated for 1–24 h at RT. Plates were read according to manufacturer’s protocol on an HTRF-compatible plate reader at 620 and 665 nm cAMP concentrations were interpolated from a cAMP standard curve. […] For cytotoxicity assays, compounds were tested at 30 μM and this protocol was used with the exception of detection reagents; CellTiter-Glo 2.0 reagent was used according to manufacturer’s protocol and luminescence was read on the Synergy Neo2 plate reader. Data are normalized to cells treated with vehicle (100%) or 2% tween (0%) and are represented as the percent of vehicle, from the average of three independent experiments (N = 3).

[2] = target: T2, AC8 (Homo sapiens, UniProt P40145); assay: cAMP accumulation assay, AC8-HEK Δ3/6 KO cells; type: cell-based; details: for IC50: CDI analog SAR set, 3 μM A23187, read-out: IC50 (μM) ± SEM AC8
T2 construct: expressed in transfected cells
T2 sequence (P40145 whole entry, species assumed): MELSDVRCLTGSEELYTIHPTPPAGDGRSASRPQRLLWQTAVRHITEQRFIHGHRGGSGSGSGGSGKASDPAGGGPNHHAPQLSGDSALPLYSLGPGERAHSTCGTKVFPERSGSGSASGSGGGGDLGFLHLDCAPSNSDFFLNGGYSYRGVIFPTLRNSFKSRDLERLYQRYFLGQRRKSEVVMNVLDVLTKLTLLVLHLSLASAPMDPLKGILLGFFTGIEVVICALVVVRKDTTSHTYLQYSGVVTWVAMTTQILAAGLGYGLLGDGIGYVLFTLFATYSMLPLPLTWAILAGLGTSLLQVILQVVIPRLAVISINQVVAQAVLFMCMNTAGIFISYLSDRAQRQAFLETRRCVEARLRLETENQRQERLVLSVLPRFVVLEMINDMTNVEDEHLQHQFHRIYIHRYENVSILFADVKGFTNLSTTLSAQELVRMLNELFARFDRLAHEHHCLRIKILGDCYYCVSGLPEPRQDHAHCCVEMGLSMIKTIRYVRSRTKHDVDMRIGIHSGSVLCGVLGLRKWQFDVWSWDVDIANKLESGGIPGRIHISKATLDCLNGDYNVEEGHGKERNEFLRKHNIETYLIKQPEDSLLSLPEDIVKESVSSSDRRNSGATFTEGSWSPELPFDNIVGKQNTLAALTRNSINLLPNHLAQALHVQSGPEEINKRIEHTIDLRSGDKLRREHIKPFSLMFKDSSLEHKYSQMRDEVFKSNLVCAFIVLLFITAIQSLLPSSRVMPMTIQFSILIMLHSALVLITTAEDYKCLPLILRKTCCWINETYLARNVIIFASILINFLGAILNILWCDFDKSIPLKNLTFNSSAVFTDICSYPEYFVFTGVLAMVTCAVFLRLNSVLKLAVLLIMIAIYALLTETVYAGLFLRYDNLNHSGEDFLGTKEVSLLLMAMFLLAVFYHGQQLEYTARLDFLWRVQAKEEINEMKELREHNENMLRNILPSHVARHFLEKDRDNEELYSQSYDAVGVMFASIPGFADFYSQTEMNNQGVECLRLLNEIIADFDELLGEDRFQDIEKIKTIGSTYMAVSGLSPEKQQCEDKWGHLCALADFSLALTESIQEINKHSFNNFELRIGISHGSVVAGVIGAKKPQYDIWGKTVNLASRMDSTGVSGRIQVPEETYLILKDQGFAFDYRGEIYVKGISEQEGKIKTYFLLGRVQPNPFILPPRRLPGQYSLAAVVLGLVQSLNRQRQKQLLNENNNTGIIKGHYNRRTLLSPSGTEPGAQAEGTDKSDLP
Method: (§1) Cryopreserved HEK293 cells with AC3 and AC6 knocked out, and stably expressing AC1, AC2, AC5, or AC8 (AC1-HEK Δ3/6 KO, AC2-HEK Δ3/6 KO, AC5-HEK Δ3/6 KO, or AC8-HEK Δ3/6 KO cells, respectively; [Soto-Velasquez et al., 2018]) were plated at 5,000 cells/well. Cells were then incubated for 1 h at 37°C and 5% CO2. Cells were then treated with varying concentrations of inhibitors for 30 min, followed by treatment with calcium ionophore A23187 (3 μM) in 500 μM 3-isobutyl-1-methylxanthine (IBMX), a phosphodiesterase inhibitor, for 1 h at RT (Sigma Aldrich, St. Louis, MO). Finally, Cisbio HTRF detection reagents were added and incubated for 1–24 h at RT. Plates were read according to manufacturer’s protocol on an HTRF-compatible plate reader at 620 and 665 nm cAMP concentrations were interpolated from a cAMP standard curve. […] For cytotoxicity assays, compounds were tested at 30 μM and this protocol was used with the exception of detection reagents; CellTiter-Glo 2.0 reagent was used according to manufacturer’s protocol and luminescence was read on the Synergy Neo2 plate reader. Data are normalized to cells treated with vehicle (100%) or 2% tween (0%) and are represented as the percent of vehicle, from the average of three independent experiments (N = 3).

[3] = Cytotoxicity assay (CellTiter-Glo 2.0) in AC1-HEK Δ3/6 KO cells; type: cell-based; details: human, percent of vehicle, read-out: % Viable Cells at AC1 30 μM
Method: as §1

[4] = target: T3, AC1-C1b/CaM (Homo sapiens, UniProt P0DP23); assay: AC1-C1b/CaM fluorescence polarization (FP) assay; type: binding; details: repurchased powder
T3 construct: made in house; host or cells: E. coli BL21-CodonPlus (DE3)-RIPL

T1 sequence (Q08828 whole entry): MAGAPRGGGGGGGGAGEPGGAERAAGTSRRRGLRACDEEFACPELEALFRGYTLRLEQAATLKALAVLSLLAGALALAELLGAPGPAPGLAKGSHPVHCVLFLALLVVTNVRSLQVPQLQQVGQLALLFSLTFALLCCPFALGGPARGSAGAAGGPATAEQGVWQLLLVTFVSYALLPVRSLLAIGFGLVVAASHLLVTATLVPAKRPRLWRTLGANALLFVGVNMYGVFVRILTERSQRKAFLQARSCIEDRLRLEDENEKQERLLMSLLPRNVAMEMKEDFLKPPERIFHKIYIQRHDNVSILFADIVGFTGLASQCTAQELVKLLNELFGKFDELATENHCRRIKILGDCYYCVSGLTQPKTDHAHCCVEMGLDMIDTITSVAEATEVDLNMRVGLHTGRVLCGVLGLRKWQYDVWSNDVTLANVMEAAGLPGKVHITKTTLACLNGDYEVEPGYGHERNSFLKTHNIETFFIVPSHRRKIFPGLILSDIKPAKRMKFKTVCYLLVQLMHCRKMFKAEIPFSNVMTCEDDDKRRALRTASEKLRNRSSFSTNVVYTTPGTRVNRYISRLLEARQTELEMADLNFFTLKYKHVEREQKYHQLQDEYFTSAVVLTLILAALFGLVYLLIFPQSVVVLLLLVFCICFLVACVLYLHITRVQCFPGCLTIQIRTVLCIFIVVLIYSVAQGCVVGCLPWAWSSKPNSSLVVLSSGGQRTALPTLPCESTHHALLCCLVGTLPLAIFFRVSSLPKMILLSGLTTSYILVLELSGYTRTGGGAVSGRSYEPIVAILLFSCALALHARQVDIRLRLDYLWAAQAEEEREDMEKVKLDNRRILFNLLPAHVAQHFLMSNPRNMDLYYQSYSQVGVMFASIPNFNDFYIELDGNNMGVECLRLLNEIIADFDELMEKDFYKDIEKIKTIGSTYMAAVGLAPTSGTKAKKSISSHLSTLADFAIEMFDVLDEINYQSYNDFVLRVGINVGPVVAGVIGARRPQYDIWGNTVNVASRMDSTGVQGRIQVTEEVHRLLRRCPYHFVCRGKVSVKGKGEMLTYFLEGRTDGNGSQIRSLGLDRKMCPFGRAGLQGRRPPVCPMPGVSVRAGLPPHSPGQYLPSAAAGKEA

Row | IC50 [1] | IC50 [2] | fold more potent at AC8 than AC1 ([2]; cAMP accumulation IC50s) | fold reduction in AC1 potency compared to 15 ([1]; matched molecular pair 15) | fold reduction in AC8 potency compared to 15 ([2]; matched molecular pair 15) | Compound | viability at 30 min, 30 μM [3] | inhibition of AC1/CaM in the FP assay after fresh powder stocks were ordered [4]
1 | 2.48 ± 0.39 µM | 3.23 ± 0.57 µM |  |  |  | CCc1cc(C(c2cccs2)N2CCCCC2)c(NC(=O)c2ccco2)s1 (stereo not drawn) [Compound 22] | 97% | 
2 | 3.08 ± 0.25 µM | 4.21 ± 1.01 µM |  |  |  | Cc1cc(C(c2cccs2)N2CCC(C)CC2)c(NC(=O)c2ccco2)s1 (stereo not drawn) [Compound 23] | 100% | 
3 | 4.39 ± 0.44 µM | 2.92 ± 1.36 µM |  |  |  | CCc1cc(C(c2cccs2)N2CCN(CC)CC2)c(NC(=O)c2ccco2)s1 (stereo not drawn) [Compound 26] | 61% | 
4 | 34.8 ± 13 µM | 25.6 ± 6.77 µM |  |  |  | CN1CCN(C(c2cccs2)c2c(NC(=O)c3ccco3)sc3c2CCCC3)CC1 (stereo not drawn) [Compound 27] | 48% | 
5 | 20 ± 5.23 µM | 11.6 ± 1.82 µM | 2 fold |  |  | CCN1CCN(C(c2cccs2)c2c(NC(=O)c3ccco3)sc3c2CCCC3)CC1 (stereo not drawn) [Compound 28] | 88% | 
6 | 10.3 ± 1.45 µM | 14.4 ± 4.1 µM |  | ~2 fold | ~3 fold | CCc1cc(C(c2ccccc2)N2CCN(C)CC2)c(NC(=O)c2ccco2)s1 (stereo not drawn) [Compound 29] | 65% | 
7 | 10.6 ± 2.72 µM | 4.99 ± 1.1 µM |  |  |  | Cc1cc(C(c2cccs2)N2CCOCC2)c(NC(=O)c2ccco2)s1 (stereo not drawn) [Compound 30] | 100% | 
8 | 5.25 ± 1.07 µM | 1.49 ± 0.38 µM |  |  |  | CCc1cc(C(c2cccs2)N2CCOCC2)c(NC(=O)c2ccco2)s1 (stereo not drawn) [Compound 31] | 37% | 
9 | 3.58 ± 2.26 µM | 2.7 ± 1.92 µM |  |  |  | CCc1cc(C(Nc2ccccn2)c2cccs2)c(NC(=O)c2ccco2)s1 (stereo not drawn) [Compound 33] | 88% | 
10 |  |  |  |  |  | CN1CCC[C@H]1c1cccnc1.O=C(O)C(O)C(O)C(=O)O.O=C(O)C(O)C(O)C(=O)O [nicotine ditartrate] |  | did not exhibit significant inhibition
11 |  |  |  |  |  | CCN(C)C(=O)Oc1cccc([C@H](C)N(C)C)c1 [rivastigmine tartrate] |  | did not exhibit significant inhibition
12 |  |  |  |  |  | ethyl quinine |  | did not exhibit significant inhibition

Source: paper PMC9486168, “Protein-protein interaction-based high throughput screening for adenylyl cyclase 1 inhibitors: Design, implementation, and discovery of a novel chemotype” (Frontiers in Pharmacology, 2022)
